Our source for the IC50 and solubility values is US20140005163A1 (NOVARTIS AG, priority 2010, published 2014).

≈ marks a conversion by molar mass, not a printed value. Read-outs that look alike come from different tables or passages of the source.

The test system of data set [1] is PKB Ser473 phosphorylation in Rat1-myr-HA-p110 alpha cells. As to the kind of experiment: Reverse protein array assay, PKB Ser473 phosphorylation in Rat1-myr-p110 alpha cells. It counts as cell-based. The settings on record: 0.5 h, pAkt Ser473, 30 minutes compound incubation, read-out: p-PKB IC50. In outline: (§1)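 Lysates were arrayed at four dilutions, and phospho-PKB Ser473 was quantified by relative fluorescence signal. They came from Rat1-myr-HA-p110 alpha, beta or delta cells exposed for 30 min at 37 °C to an 8-point compound series with 0.2% DMSO constant.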

A further data set can be described thus: Solubility at pH 6.8. It counts as physicochemical. An outline of the steps:
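Solubility was measured at pH 6.8 following the cited Zhou et al. (2007) procedure.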

A further data set has as its target T1, PI3K beta (Homo sapiens, UniProt P42338).
T1 construct: for the full-length p110-b subunit are generated and fused by overlapping PCR; p85(iSH2) fusion partner (see partner chain) (N); His tag (C); made in house; host or cells: baculovirus; Tn5 (Trichoplusia ni) or TiniPro insect cells
In words: PI3K beta kinase assay (Kinase-Glo luminescence). It counts as biochemical. In outline:
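p110β full-length/p85 iSH2 construct (BV-949), 25 nM, with 1 μM ATP and 10 μg/mL phosphatidylinositol in 10 mM Tris pH 7.5, 3 mM MgCl2, 50 mM NaCl, 0.05% CHAPS, 1 mM DTT. 60 min at room temperature; ATP remaining read by Kinase-Glo luminescence. IC50 from 8-point four-parameter logistic fit.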
(In general: Kinase-Glo reads ATP consumption through a luciferase reaction.)

The test system of data set [2] is PKB Ser473 phosphorylation in Rat1-myr-HA-p110 beta cells. In words: Reverse protein array assay, PKB Ser473 phosphorylation in Rat1-myr-p110 beta cells. Format: cell-based. The settings on record: 0.5 h, pAkt Ser473, 30 minutes incubation, read-out: p-PKB IC50. An outline of the steps: as §1
Data set [3] concerns PKB Ser473 phosphorylation in Rat1-myr-HA-p110 delta cells. As to the kind of experiment: Reverse protein array assay, PKB Ser473 phosphorylation in Rat1-myr-p110 delta cells. It counts as cell-based. Particulars: read-out: p-PKB IC50. In outline: as §1
The mark [4] stands for this setting: pH 6.8, aqueous buffer, thermodynamic from solid, read-out: solubility.

T1 sequence (P42338 with tags, fused parts or gaps limits assumed): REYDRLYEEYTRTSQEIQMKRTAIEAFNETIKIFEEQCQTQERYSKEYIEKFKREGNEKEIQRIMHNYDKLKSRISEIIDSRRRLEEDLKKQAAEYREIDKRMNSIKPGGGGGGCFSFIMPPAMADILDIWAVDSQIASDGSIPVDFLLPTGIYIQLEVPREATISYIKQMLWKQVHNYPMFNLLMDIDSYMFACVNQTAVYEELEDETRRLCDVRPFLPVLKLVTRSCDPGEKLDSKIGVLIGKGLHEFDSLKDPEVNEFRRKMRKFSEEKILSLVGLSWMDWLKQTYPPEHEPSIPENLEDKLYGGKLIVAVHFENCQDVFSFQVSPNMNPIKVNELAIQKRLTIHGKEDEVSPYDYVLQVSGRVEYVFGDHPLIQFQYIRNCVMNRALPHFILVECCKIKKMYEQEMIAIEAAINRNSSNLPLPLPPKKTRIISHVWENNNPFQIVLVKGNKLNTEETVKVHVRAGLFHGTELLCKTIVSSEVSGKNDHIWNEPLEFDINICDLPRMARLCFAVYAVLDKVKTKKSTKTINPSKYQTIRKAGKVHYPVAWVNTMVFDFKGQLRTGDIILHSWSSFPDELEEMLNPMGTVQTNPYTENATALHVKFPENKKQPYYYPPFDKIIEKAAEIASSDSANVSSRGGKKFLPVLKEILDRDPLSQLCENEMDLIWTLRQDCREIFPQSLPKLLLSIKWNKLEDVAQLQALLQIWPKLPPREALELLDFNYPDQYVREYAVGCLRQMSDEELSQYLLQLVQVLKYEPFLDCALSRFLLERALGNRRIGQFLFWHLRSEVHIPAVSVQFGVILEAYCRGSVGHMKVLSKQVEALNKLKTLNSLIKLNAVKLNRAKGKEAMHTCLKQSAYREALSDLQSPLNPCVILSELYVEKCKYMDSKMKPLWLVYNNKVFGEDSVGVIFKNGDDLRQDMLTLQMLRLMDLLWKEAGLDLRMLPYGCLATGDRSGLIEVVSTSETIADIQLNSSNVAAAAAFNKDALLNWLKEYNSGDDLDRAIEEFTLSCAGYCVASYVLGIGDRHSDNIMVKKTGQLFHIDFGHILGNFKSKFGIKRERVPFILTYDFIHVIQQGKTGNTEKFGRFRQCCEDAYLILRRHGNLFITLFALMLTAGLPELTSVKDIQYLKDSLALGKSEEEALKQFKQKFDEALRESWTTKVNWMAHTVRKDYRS

One may read the IC50 as the concentration that inhibits the measured activity by half. A word on the solubility: it is the dissolved amount per volume that the medium holds. As to `COCc1cc(-c2ccc3ncc4c(c3c2)n(-c2cn(C)nc2C)c(=O)n4C)cnc1OC` [Example 202, 1-(1,3-Dimethyl-1H-pyrazol-4-yl)-8-(6-methoxy-5-methoxymethyl-pyridin-3-yl)-3-methyl-1,3-dihydro-imidazo[4,5-c]quinolin-2-one], the half-maximal inhibitory concentration (IC50) in data set [1] was determined as 23 nM; at PI3K beta, 13 nM; in data set [2], 29 nM; in data set [3], 28 nM. For the same molecule, in “Solubility at pH 6.8” (setting [4]), the solubility worked out at 16 µg/mL (≈ 36 µM).
As for `Cc1nn(C)cc1-n1c(=O)n(C)c2cnc3ccc(-c4cnc5c(c4)OCCN5C)cc3c21` [Example 209, 1-(1,3-Dimethyl-1H-pyrazol-4-yl)-3-methyl-8-(4-methyl-3,4-dihydro-2H-pyrido[3,2-b][1,4]oxazin-7-yl)-1,3-dihydro-imidazo[4,5-c]quinolin-2-one], the IC50 amounted to 18 nM in data set [1], 273 nM on PI3K beta, 22 nM in data set [2] and 66 nM in data set [3]. The solubility in the data set “Solubility at pH 6.8” (pH 6.8) was 2 µg/mL (≈ 4.53 µM).
As to `Cc1nn(C)cc1-n1c(=O)n(C)c2cnc3ccc(-c4cncc(C(C)(C)O)c4)cc3c21` [Example 215.2, 1-(1,3-Dimethyl-1H-pyrazol-4-yl)-8-[5-(1-hydroxy-1-methyl-ethyl)-pyridin-3-yl]-3-methyl-1,3-dihydro-imidazo[4,5-c]quinolin-2-one], the IC50 in data set [1] stood at 43 nM; at PI3K beta, 10 nM; in data set [2], 113 nM; in data set [3] it was 178 nM. Further, in “Solubility at pH 6.8” (setting [4]), the solubility is over 428 µg/mL.
In the same order, the values of `Cc1nn(C)cc1-n1c(=O)n(C)c2cnc3ccc(-c4cncc(C5(O)CCCC5)c4)cc3c21` [Example 218, 1-(1,3-Dimethyl-1H-pyrazol-4-yl)-8-[5-(1-hydroxy-cyclopentyl)-pyridin-3-yl]-3-methyl-1,3-dihydro-imidazo[4,5-c]quinolin-2-one] are 22 nM, 19 nM, 27 nM, 53 nM and 14 µg/mL (≈ 30.8 µM).
As for `Cc1nn(C)cc1-n1c(=O)n(C)c2cnc3ccc(-c4cncc(C(C)(C)C#N)c4)cc3c21` [Example 220.1, 2-{5-[1-(1,3-Dimethyl-1H-pyrazol-4-yl)-3-methyl-2-oxo-2,3-dihydro-1H-imidazo[4,5-c]quinolin-8-yl]-pyridin-3-yl}-2-methyl-propionitrile], the IC50 in data set [1] turned out to be 10 nM; at PI3K beta, 23 nM; in data set [2] it was 18 nM; in data set [3], 23 nM. In the data set “Solubility at pH 6.8” (pH 6.8), this molecule came in with a solubility of 2 µg/mL (≈ 4.57 µM).
As for `CNC(=O)c1cc(-c2ccc3ncc4c(c3c2)n(-c2cn(C(C)C)nc2C)c(=O)n4C)cnc1N` [Example 224.2, 2-Amino-5-[1-(1-isopropyl-3-methyl-1H-pyrazol-4-yl)-3-methyl-2-oxo-2,3-dihydro-1H-imidazo[4,5-c]quinolin-8-yl]-N-methyl-nicotinamide], the IC50 in data set [1] was found to be 104 nM; at PI3K beta it was 280 nM; in data set [2], 130 nM; in data set [3] it was 132 nM. Also, in “Solubility at pH 6.8” (setting [4]), the solubility was found to be 16 µg/mL (≈ 34 µM).
In the same order, the values of `COc1ncc(-c2ccc3ncc4c(c3c2)n(-c2cn(C)nc2C)c(=O)n4C)c(OC)n1` [Example 234.2, 8-(2,4-Dimethoxy-pyrimidin-5-yl)-1-(1,3-dimethyl-1H-pyrazol-4-yl)-3-methyl-1,3-dihydro-imidazo[4,5-c]quinolin-2-one] are 13 nM, 25 nM, 26 nM, 23 nM and 22 µg/mL (≈ 51 µM).
Regarding `CCn1cc(-n2c(=O)n(C)c3cnc4ccc(-c5cnc(NC)nc5OC)cc4c32)c(C)n1` [Example 236, 1-(1-Ethyl-3-methyl-1H-pyrazol-4-yl)-8-(4-methoxy-2-methylamino-pyrimidin-5-yl)-3-methyl-1,3-dihydro-imidazo[4,5-c]quinolin-2-one], the IC50 in data set [1] is under 5 nM; on PI3K beta it was 90 nM; in data set [2] it was 6 nM; in data set [3], 13 nM. This molecule had a solubility in the data set “Solubility at pH 6.8” (pH 6.8) of 2 µg/mL (≈ 4.5 µM).
Consider `COc1ccc(-c2ccc3ncc4[nH]c(=O)n(-c5cn(C)nc5C)c4c3n2)cc1OC` [Example 249, 8-(3,4-dimethoxy-phenyl)-1-(1,3-dimethyl-1H-pyrazol-4-yl)-1,3-dihydro-1,3,5,9-tetraaza-cyclopenta[a]naphthalen-2-one], for which the IC50 was found to be 7 nM in data set [1], 33 nM at PI3K beta, 22 nM in data set [2] and 29 nM in data set [3]. Besides, in “Solubility at pH 6.8” (setting [4]), the solubility is 16 µg/mL (≈ 38.4 µM).
In the same order, the values of `COc1ccc(-c2ccc3ncc4c(c3n2)n(-c2cn(C)nc2C)c(=O)n4C)cc1OC` [Example 250, 8-(3,4-Dimethoxy-phenyl)-1-(1,3-dimethyl-1H-pyrazol-4-yl)-3-methyl-1,3-dihydro-1,3,5,9-tetraaza-cyclopenta[a]naphthalen-2-one] are 41 nM, 68 nM, 97 nM, 118 nM and 5 µg/mL (≈ 11.6 µM).
